# Test results: ChEMBL document CHEMBL3351462, “RORγt Modulators Are Potentially Useful for the Treatment of the Immune-Mediated Inflammatory Diseases” (ACS Med Chem Lett, 2014)
# Assays:
# [1] = target: T1, Nuclear receptor ROR-gamma (Homo sapiens) (UniProt P51449); experiment: Modulator activity at GAL4-tagged human RORgammat ligand binding domain expressed HEK293T cells by luciferase reporter gene assay relative to untreated control; type: cell-based; conditions: HEK-293T, concentration not given here
# T1 sequence (whole entry): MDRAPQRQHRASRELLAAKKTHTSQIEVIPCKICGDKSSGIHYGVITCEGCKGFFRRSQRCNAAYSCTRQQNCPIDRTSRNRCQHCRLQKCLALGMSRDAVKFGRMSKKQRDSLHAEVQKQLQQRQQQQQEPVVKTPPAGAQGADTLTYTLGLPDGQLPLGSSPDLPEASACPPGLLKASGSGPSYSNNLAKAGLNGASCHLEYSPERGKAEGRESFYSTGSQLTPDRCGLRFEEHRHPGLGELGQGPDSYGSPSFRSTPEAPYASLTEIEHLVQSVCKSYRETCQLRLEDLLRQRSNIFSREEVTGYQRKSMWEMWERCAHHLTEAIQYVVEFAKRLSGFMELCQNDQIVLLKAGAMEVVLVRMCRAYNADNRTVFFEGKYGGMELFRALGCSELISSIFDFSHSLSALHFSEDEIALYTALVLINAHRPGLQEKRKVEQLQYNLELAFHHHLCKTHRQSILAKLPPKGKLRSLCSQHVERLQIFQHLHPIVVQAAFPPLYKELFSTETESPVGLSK
# T-cell = experiment: Inhibition of IL17 production in human CD4-positive T cells incubated for 3 days; type: functional, cell-based; conditions: 72 h
# [2] = target: T2, Nuclear receptor ROR-gamma (Homo sapiens, UniProt P51449); experiment: Binding affinity to human wild type RORgammat ligand binding domain expressed in Escherichia coli by thermofluor assay
# T2 sequence (P51449 whole entry): T1 sequence (whole entry)
# [3] = target: T2, Nuclear receptor ROR-gamma; experiment: Modulator activity at GAL4-tagged human RORgammat ligand binding domain expressed HEK293T cells by luciferase reporter gene assay; type: cell-based, HEK-293T
Compound,inhibition [1] [%],IC50 (T-cell) [nM],Kd [2] [nM],IC50 [3] [nM]
Cn1cncc1C(O)(c1ccc(Cl)cc1)c1ccc2nc(Cl)c(Cc3ccccc3)c(Cl)c2c1 (stereo not given),72,590,–,–
OC(c1ccncc1)(c1ccc2nc(Cl)c(Cc3ccc(Cl)cc3)c(Cl)c2c1)c1cncs1 (stereo not given),85,85,0.83,6.5
Cn1cncc1C(O)(c1ccc(C(F)(F)F)nc1)c1ccc2nc(C#N)c(Cc3ccc(-n4cccn4)cc3)c(C#N)c2c1 (stereo not given),99,25,–,–
COc1nc2ccc(C(O)(c3sc(C)nc3C)c3cnnn3C)cc2c(Cl)c1Cc1ccc(C(F)(F)F)cc1 (stereo not given),94,1.5,–,–
